In PubChem BioAssay (NCI):
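Each compound was tested at five concentrations against cells in 96-well plates for 48 hours. TGI marks complete inhibition of growth.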

Legend:
Experiment in all cases: NCI anticancer screen, dose series, 48 h
786-0 renal = system: 786-0 renal
HL-60(TB) leukemia = system: HL-60(TB) leukemia
HT29 colon = system: HT29 colon
K-562 leukemia = system: K-562 leukemia
LOX IMVI melanoma = system: LOX IMVI melanoma
M14 melanoma = system: M14 melanoma
MOLT-4 leukemia = system: MOLT-4 leukemia
OVCAR-4 ovarian = system: OVCAR-4 ovarian
OVCAR-5 ovarian = system: OVCAR-5 ovarian
OVCAR-8 ovarian = system: OVCAR-8 ovarian
SF-268 CNS = system: SF-268 CNS
SF-539 CNS = system: SF-539 CNS
SNB-75 CNS = system: SNB-75 CNS
SR leukemia = system: SR leukemia
TK-10 renal = system: TK-10 renal
UACC-62 melanoma = system: UACC-62 melanoma
DU-145 prostate = system: DU-145 prostate
HS 578T breast = system: HS 578T breast
NCI/ADR-RES ovarian = system: NCI/ADR-RES ovarian

Row | SMILES | TGI (786-0 renal) [µM] | TGI (HL-60(TB) leukemia) [µM] | TGI (HT29 colon) [µM] | TGI (K-562 leukemia) [µM] | TGI (LOX IMVI melanoma) [µM] | TGI (M14 melanoma) [µM] | TGI (MOLT-4 leukemia) [µM] | TGI (OVCAR-4 ovarian) [µM] | TGI (OVCAR-5 ovarian) [µM] | TGI (OVCAR-8 ovarian) [µM] | TGI (SF-268 CNS) [µM] | TGI (SF-539 CNS) [µM] | TGI (SNB-75 CNS) [µM] | TGI (SR leukemia) [µM] | TGI (TK-10 renal) [µM] | TGI (UACC-62 melanoma) [µM] | TGI (DU-145 prostate) [µM] | TGI (HS 578T breast) [µM] | TGI (NCI/ADR-RES ovarian) [µM]
1 | CCOC(=O)C(Cc1ccccc1)NC(=O)c1ccc(N=NN(C)C)cc1 (centres undefined) | > 100 | > 100 | > 100 | > 100 | > 100 | > 100 | > 100 | > 100 | > 100 | > 100 | > 100 | > 100 | > 100 | > 100 | > 100 | > 100 |  |  | 
2 | O=C(NC1CCC(=O)N1C(=O)OCc1ccccc1)OCc1ccccc1 (centres undefined) | > 100 |  | > 100 | > 100 |  | > 100 | > 100 |  | > 100 | > 100 | > 100 | > 100 | > 100 | > 100 | > 100 | > 100 | > 100 | > 100 | > 100
3 | COc1ccc(CNc2nc3cc(C(F)(F)F)ccc3nc2C(=O)O)cc1OC | > 100 |  | > 100 | 74.7 | > 100 | > 100 | 55.7 | > 100 | > 100 | > 100 |  | > 100 | > 100 | 63.8 |  | 45.6 | > 100 |  | > 100
4 | COC(=O)c1ccc(N=NN(C)COc2ccc(C#N)cc2)cc1 | > 100 | 50.4 | > 100 | > 100 | > 100 | > 100 | > 100 | > 100 | > 100 | > 100 | > 100 | > 100 | > 100 |  | > 100 |  | > 100 | > 100 | > 100
5 | C=C(C)CC1=C(OCC)C(OC)(OCC)C1=O (centres undefined) | > 100 | > 100 | > 100 |  | > 100 | > 100 | > 100 | > 100 | > 100 | > 100 | > 100 | > 100 | > 100 |  | > 100 | > 100 | > 100 | > 100 | > 100
6 | Cn1c(=O)c2c(no[n+]2[O-])n(C)c1=O | 71.8 |  | > 100 | > 100 | > 100 | > 100 | > 100 | > 100 | > 100 | 37 | 55.7 | > 100 | 99.2 | > 100 | 60.7 | 40.5 |  | 64.9 | 46
7 | Cc1cc2c(cc1Cl)SC(N/N=C(\N)c1ccc(Cl)cc1)=NS2(=O)=O | > 100 | > 100 | > 100 | > 100 | > 100 | > 100 | > 100 | > 100 | > 100 | > 100 | > 100 | 84.2 | > 100 |  | > 100 | > 100 | > 100 | > 100 | > 100
8 | COc1ccc(-c2c(C#N)c(-c3ccc(C)cc3)n(NS(=O)(=O)c3ccccc3)c(=O)c2C#N)cc1 | > 100 | 52.3 | > 100 | > 100 | > 100 | > 100 | 60.4 | > 100 | > 100 | > 100 | > 100 | > 100 | > 100 |  | > 100 | > 100 |  | > 100 | > 100
9 | CC1(C)C(O)C[C@]23CCC[C@](C)(C[C@@H](O)C12)C3 (some centres undefined) | > 100 | > 100 | > 100 | > 100 | > 100 | > 100 | > 100 | > 100 | > 100 | > 100 | > 100 |  | > 100 | > 100 | > 100 | > 100 |  | > 100 | > 100
10 | O=C1c2cccnc2S(=O)N1Cc1ccccc1 (centres undefined) | > 100 |  | > 100 | > 100 |  | > 100 | > 100 | > 100 | > 100 | > 100 | > 100 | > 100 | > 100 | > 100 | > 100 | > 100 | > 100 | > 100 | > 100
11 | CC(C)OCC(O)COc1ccc2ccc(=O)oc2c1 (centres undefined) | > 100 | > 100 | > 100 | > 100 | > 100 | > 100 | > 100 | > 100 | > 100 | > 100 | > 100 |  | > 100 |  | > 100 | > 100 | > 100 | > 100 | > 100
12 | COC(=O)CCC(NC(=O)C(C)NC(=O)COC1C(O)C(OC(=O)CCNc2c3ccccc3nc3cccc([N+](=O)[O-])c23)OC(OCc2ccccc2)C1NC(C)=O)C(N)=O (centres undefined) | > 10 |  | > 10 | > 10 | > 10 | > 10 | > 10 |  | > 10 | > 10 | > 10 | > 10 | > 10 |  | > 10 | > 10 | 7.06 | > 10 | 
13 | O=C1C2=Cc3ccccc3OC2(O)Oc2cc(O)ccc21 (centres undefined) | > 100 |  | > 100 | > 100 | > 100 | > 100 | > 100 |  | > 100 | > 100 | > 100 | > 100 | > 100 |  | > 100 | > 100 | > 100 |  | > 100
